Experimental data taken from patent US20150150851A1, “FORMULATION AND DOSING OF HSP90 INHIBITORY COMPOUNDS” (Synta Pharmaceuticals Corp., priority 2010, published 2015).
≈ marks a conversion by molar mass, not a printed value.

Assay: Equilibrium solubility in polysorbate 80 / PEG 300 mixtures (72 hours, HPLC)
Assay type: physicochemical
Settings: organic solvent or mixture, thermodynamic from solid

A solubility at 72 h (polysorbate 80 / PEG 300 mixture, 40% PEG 300, 60% polysorbate 80, equilibrated 72 hours) of 76.1 mg/mL (≈ 209 mM), a solubility at 72 h (polysorbate 80 / PEG 300 mixture, 45% PEG 300, 55% polysorbate 80, equilibrated 72 hours) of 84.7 mg/mL (≈ 232 mM) and a solubility at 72 h (polysorbate 80 / PEG 300 mixture, 50% PEG 300, 50% polysorbate 80, equilibrated 72 hours) of 96.2 mg/mL (≈ 264 mM) were found for `CC(C)c1cc(-c2n[nH]c(=O)n2-c2ccc3c(ccn3C)c2)c(O)cc1O` [Compound 1, 3-(2,4-dihydroxy-5-isopropyl-phenyl)-4-(1-methyl-indol-5-yl)-5-hydroxy-[1,2,4] triazole] in this work. The solubility at 72 h (polysorbate 80 / PEG 300 mixtures, in all three polysorbate 80 / PEG 300 solutions) was over 75 mg/mL.
